In patent publication US20240239861A1, “GLUCAGON-RECEPTOR SELECTIVE POLYPEPTIDES AND METHODS OF USE THEREOF” (i2O Therapeutics, Inc., priority 2016, published 2024):
*1 amine or outer side, *2 acyl side, *3 side chain or, on linkers, in order; H or OH if unused. Where a SMILES comes first, the peptide text is derived from it. Side-chain parts run from the residue outwards. [ ]: non-standard residue; d: D form. The star is where a group is joined. C18 diacid = O=C(O)CCCCCCCCCCCCCCCCC(=O)*; γGlu = O=C(O)[C@H](CCC(=O)[*:2])N[*:1]; Palmitoyl = CCCCCCCCCCCCCCCC(=O)*; AEEA = NCCOCCOCC(=O)O; Aib = CC(C)(N)C(=O)O

Experiments:
human GCGR = human GCGR (Homo sapiens, UniProt P47871); experiment: Peptide-receptor mediated cAMP accumulation (LANCE Ultra cAMP) in CHO-K1 cells transfected with human GCGR; assay type: cell-based; conditions: read-out: GluR pEC50 (converted)
Chain of human GCGR (P47871 26-477): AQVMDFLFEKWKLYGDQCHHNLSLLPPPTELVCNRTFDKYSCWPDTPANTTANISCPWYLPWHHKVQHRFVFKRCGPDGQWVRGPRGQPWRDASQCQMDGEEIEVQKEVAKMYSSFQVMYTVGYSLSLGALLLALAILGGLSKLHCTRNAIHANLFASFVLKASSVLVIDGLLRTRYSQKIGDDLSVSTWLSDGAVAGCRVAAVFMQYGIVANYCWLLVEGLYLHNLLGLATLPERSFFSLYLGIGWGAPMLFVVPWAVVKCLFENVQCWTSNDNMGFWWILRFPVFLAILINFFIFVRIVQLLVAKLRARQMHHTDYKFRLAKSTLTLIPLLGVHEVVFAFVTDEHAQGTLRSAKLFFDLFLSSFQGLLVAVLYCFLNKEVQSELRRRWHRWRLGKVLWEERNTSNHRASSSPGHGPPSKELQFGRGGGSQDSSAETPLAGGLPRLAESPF

human GLP-1R = human GLP-1R (Homo sapiens, UniProt P43220); experiment: Peptide-receptor mediated cAMP accumulation (LANCE Ultra cAMP) in CHO-K1 cells transfected with human GLP-1R; assay type: cell-based; conditions: Table 7; GLP-1R; read-out: GLP-1R pEC50 (converted)
Chain of human GLP-1R (P43220 24-463): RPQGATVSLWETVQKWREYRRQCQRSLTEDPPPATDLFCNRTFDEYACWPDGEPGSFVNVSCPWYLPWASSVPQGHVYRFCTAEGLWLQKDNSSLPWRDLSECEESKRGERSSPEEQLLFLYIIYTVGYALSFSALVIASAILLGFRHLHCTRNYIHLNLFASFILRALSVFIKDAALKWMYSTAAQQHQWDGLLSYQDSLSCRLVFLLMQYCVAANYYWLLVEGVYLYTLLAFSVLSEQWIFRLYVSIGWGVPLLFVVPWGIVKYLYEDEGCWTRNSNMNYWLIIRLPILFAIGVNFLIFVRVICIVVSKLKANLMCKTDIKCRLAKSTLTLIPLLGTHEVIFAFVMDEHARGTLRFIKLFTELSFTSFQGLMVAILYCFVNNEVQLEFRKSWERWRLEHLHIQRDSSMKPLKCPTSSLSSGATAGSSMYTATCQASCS

SMILES	EC50 (human GCGR) [nM]	EC50 (human GLP-1R) [nM]
CCCCCCCCCCCCCCCC(=O)N[C@@H](CCC(=O)NCCCC[C@H](NC(=O)[C@H](CC(=O)O)NC(=O)[C@H](CC(C)C)NC(=O)[C@H](Cc1ccc(O)cc1)NC(=O)[C@H](CCCCN)NC(=O)[C@H](CO)NC(=O)[C@H](Cc1ccc(O)cc1)NC(=O)[C@H](CC(=O)O)NC(=O)[C@H](CO)NC(=O)[C@@H](NC(=O)[C@H](Cc1ccccc1)NC(=O)[C@@H](NC(=O)CNC(=O)[C@H](Cc1c[nH]cn1)NC(=O)[C@H](CO)NC(=O)[C@@H](N)Cc1ccc(O)cc1)[C@@H](C)O)[C@@H](C)O)C(=O)N[C@@H](CCCCN)C(=O)N[C@@H](CO)C(=O)N[C@@H](C)C(=O)N[C@@H](CCC(N)=O)C(=O)N[C@@H](CCC(=O)O)C(=O)N[C@@H](Cc1ccccc1)C(=O)N[C@H](C(=O)NC(C)(C)C(=O)N[C@@H](Cc1c[nH]c2ccccc12)C(=O)N[C@@H](CC(C)C)C(=O)N[C@@H](CCC(=O)O)C(=O)N[C@@H](CC(=O)O)C(=O)N[C@@H](CCC(=O)O)C(=O)N1CCC[C@H]1C(=O)N[C@@H](CO)C(=O)N[C@@H](CO)C(=O)NCC(=O)N[C@@H](C)C(=O)N1CCC[C@H]1C(=O)N1CCC[C@H]1C(=O)N1CCC[C@H]1C(=O)N[C@@H](CO)C(=O)O)C(C)C)C(=O)O [Compound B11]	0.0501	501
CCCCCCCCCCCCCCCC(=O)N[C@@H](CCC(=O)NCCCC[C@H](NC(=O)[C@H](CC(=O)O)NC(=O)[C@H](CO)NC(=O)[C@@H](NC(=O)[C@H](Cc1ccccc1)NC(=O)[C@@H](NC(=O)CNC(=O)[C@H](Cc1c[nH]cn1)NC(=O)[C@H](CO)NC(=O)[C@@H](N)Cc1ccc(O)cc1)[C@@H](C)O)[C@@H](C)O)C(=O)N[C@@H](CO)C(=O)N[C@@H](CCCCN)C(=O)N[C@@H](Cc1ccc(O)cc1)C(=O)N[C@@H](CC(C)C)C(=O)N[C@@H](CC(=O)O)C(=O)NC(C)(C)C(=O)N[C@@H](CCCCN)C(=O)N[C@@H](CO)C(=O)N[C@@H](C)C(=O)N[C@@H](CCC(N)=O)C(=O)N[C@@H](CCC(=O)O)C(=O)N[C@@H](Cc1ccccc1)C(=O)N[C@H](C(=O)NC(C)(C)C(=O)N[C@@H](Cc1c[nH]c2ccccc12)C(=O)N[C@@H](CC(C)C)C(=O)N[C@@H](CCC(=O)O)C(=O)N[C@@H](CC(=O)O)C(=O)N[C@@H](CCC(=O)O)C(=O)N1CCC[C@H]1C(=O)N[C@@H](CO)C(=O)N[C@@H](CO)C(=O)NCC(=O)N[C@@H](C)C(=O)N1CCC[C@H]1C(=O)N1CCC[C@H]1C(=O)N1CCC[C@H]1C(=O)N[C@@H](CO)C(=O)O)C(C)C)C(=O)O [Compound B12] (H-YSHGTFTSDK([γGlu-Palmitoyl])SKYLD[Aib]KSAQEFV[Aib]WLEDEPSSGAPPPS-OH)	0.00316	63.1
CC(C)C[C@H](NC(=O)[C@H](Cc1ccc(O)cc1)NC(=O)[C@H](CCCCN)NC(=O)[C@H](CO)NC(=O)[C@H](Cc1ccc(O)cc1)NC(=O)[C@H](CC(=O)O)NC(=O)[C@H](CO)NC(=O)[C@@H](NC(=O)[C@H](Cc1ccccc1)NC(=O)[C@@H](NC(=O)CNC(=O)[C@H](Cc1c[nH]cn1)NC(=O)[C@H](CO)NC(=O)[C@@H](N)Cc1ccc(O)cc1)[C@@H](C)O)[C@@H](C)O)C(=O)N[C@@H](CC(=O)O)C(=O)NC(C)(C)C(=O)N[C@@H](CCCCN)C(=O)N[C@@H](CO)C(=O)N[C@@H](C)C(=O)N[C@@H](CCC(N)=O)C(=O)N[C@@H](CCC(=O)O)C(=O)N[C@@H](Cc1ccccc1)C(=O)N[C@H](C(=O)NC(C)(C)C(=O)N[C@@H](Cc1c[nH]c2ccccc12)C(=O)N[C@@H](CC(C)C)C(=O)N[C@@H](CCC(=O)O)C(=O)N[C@@H](CC(=O)O)C(=O)N[C@@H](CCC(=O)O)C(=O)N1CCC[C@H]1C(=O)N[C@@H](CO)C(=O)N[C@@H](CO)C(=O)N[C@@H](CCCCNC(=O)COCCOCCNC(=O)COCCOCCNC(=O)CC[C@H](NC(=O)CCCCCCCCCCCCCCCCC(=O)O)C(=O)O)C(=O)N[C@@H](C)C(=O)N1CCC[C@H]1C(=O)N1CCC[C@H]1C(=O)N1CCC[C@H]1C(=O)N[C@@H](CO)C(=O)O)C(C)C [Compound B13]	0.631	> 1000
CC(C)C[C@H](NC(=O)[C@H](Cc1ccc(O)cc1)NC(=O)[C@H](CCCCN)NC(=O)[C@H](CO)NC(=O)[C@H](CCCCNC(=O)COCCOCCNC(=O)COCCOCCNC(=O)CC[C@H](NC(=O)CCCCCCCCCCCCCCCCC(=O)O)C(=O)O)NC(=O)[C@H](CC(=O)O)NC(=O)[C@H](CO)NC(=O)[C@@H](NC(=O)[C@H](Cc1ccccc1)NC(=O)[C@@H](NC(=O)CNC(=O)[C@H](Cc1c[nH]cn1)NC(=O)[C@H](CO)NC(=O)[C@@H](N)Cc1ccc(O)cc1)[C@@H](C)O)[C@@H](C)O)C(=O)N[C@@H](CC(=O)O)C(=O)NC(C)(C)C(=O)N[C@@H](CCCCN)C(=O)N[C@@H](CO)C(=O)N[C@@H](C)C(=O)N[C@@H](CCC(N)=O)C(=O)N[C@@H](CCC(=O)O)C(=O)N[C@@H](Cc1ccccc1)C(=O)N[C@H](C(=O)NC(C)(C)C(=O)N[C@@H](Cc1c[nH]c2ccccc12)C(=O)N[C@@H](CC(C)C)C(=O)N[C@@H](CCC(=O)O)C(=O)N[C@@H](CC(=O)O)C(=O)N[C@@H](CCC(=O)O)C(=O)N1CCC[C@H]1C(=O)N[C@@H](CO)C(=O)N[C@@H](CO)C(=O)NCC(=O)N[C@@H](C)C(=O)N1CCC[C@H]1C(=O)N1CCC[C@H]1C(=O)N1CCC[C@H]1C(=O)N[C@@H](CO)C(=O)O)C(C)C [Compound B16] (H-YSHGTFTSDK([AEEA-AEEA-γGlu-C18 diacid])SKYLD[Aib]KSAQEFV[Aib]WLEDEPSSGAPPPS-OH)	3.16	5.01
CCCCCCCCCCCCCCCC(=O)N[C@@H](CCC(=O)NCCCC[C@H](NC(=O)[C@H](CO)NC(=O)[C@H](CO)NC(=O)[C@@H]1CCCN1C(=O)[C@H](CCC(=O)O)NC(=O)[C@H](CC(=O)O)NC(=O)[C@H](CCC(=O)O)NC(=O)[C@H](CC(C)C)NC(=O)[C@H](Cc1c[nH]c2ccccc12)NC(=O)C(C)(C)NC(=O)[C@@H](NC(=O)[C@H](Cc1ccccc1)NC(=O)[C@H](CCC(=O)O)NC(=O)[C@H](CCC(N)=O)NC(=O)[C@H](C)NC(=O)[C@H](CCCNC(=N)N)NC(=O)[C@H](CCCCN)NC(=O)C(C)(C)NC(=O)[C@H](CC(=O)O)NC(=O)[C@H](CC(C)C)NC(=O)[C@H](Cc1ccc(O)cc1)NC(=O)[C@H](CCCCN)NC(=O)[C@H](CO)NC(=O)[C@H](Cc1ccc(O)cc1)NC(=O)[C@H](CC(=O)O)NC(=O)[C@H](CO)NC(=O)[C@@H](NC(=O)[C@H](Cc1ccccc1)NC(=O)[C@@H](NC(=O)CNC(=O)[C@H](CCC(N)=O)NC(=O)[C@H](CO)NC(=O)[C@@H](N)Cc1c[nH]c2ccccc12)[C@@H](C)O)[C@@H](C)O)C(C)C)C(=O)N[C@@H](C)C(=O)N1CCC[C@H]1C(=O)N1CCC[C@H]1C(=O)N1CCC[C@H]1C(=O)N[C@@H](CO)C(=O)O)C(=O)O [Compound B17] (H-WSQGTFTSDYSKYLD[Aib]KRAQEFV[Aib]WLEDEPSSK([γGlu-Palmitoyl])APPPS-OH)	0.0316	> 1000
CCCCCCCCCCCCCCCC(=O)N[C@@H](CCC(=O)NCCCC[C@H](NC(=O)[C@@H](NC(=O)[C@H](Cc1ccccc1)NC(=O)[C@H](CCC(=O)O)NC(=O)[C@H](CCC(N)=O)NC(=O)[C@H](C)NC(=O)[C@H](CCCNC(=N)N)NC(=O)[C@H](CCCCN)NC(=O)C(C)(C)NC(=O)[C@H](CC(=O)O)NC(=O)[C@H](CC(C)C)NC(=O)[C@H](Cc1ccc(O)cc1)NC(=O)[C@H](CCCCN)NC(=O)[C@H](CO)NC(=O)[C@H](Cc1ccc(O)cc1)NC(=O)[C@H](CC(=O)O)NC(=O)[C@H](CO)NC(=O)[C@@H](NC(=O)[C@H](Cc1ccccc1)NC(=O)[C@@H](NC(=O)CNC(=O)[C@H](CCC(N)=O)NC(=O)[C@H](CO)NC(=O)[C@@H](N)Cc1c[nH]c2ccccc12)[C@@H](C)O)[C@@H](C)O)C(C)C)C(=O)N[C@@H](Cc1c[nH]c2ccccc12)C(=O)N[C@@H](CC(C)C)C(=O)N[C@@H](CCC(=O)O)C(=O)N[C@@H](CC(=O)O)C(=O)N[C@@H](CCC(=O)O)C(=O)N1CCC[C@H]1C(=O)N[C@@H](CO)C(=O)N[C@@H](CO)C(=O)NCC(=O)N[C@@H](C)C(=O)N1CCC[C@H]1C(=O)N1CCC[C@H]1C(=O)N1CCC[C@H]1C(=O)N[C@@H](CO)C(=O)O)C(=O)O [Compound B18] (H-WSQGTFTSDYSKYLD[Aib]KRAQEFVK([γGlu-Palmitoyl])WLEDEPSSGAPPPS-OH)	0.0631	> 1000
CCCCCCCCCCCCCCCC(=O)N[C@@H](CCC(=O)NCCCC[C@H](NC(=O)[C@H](CC(=O)O)NC(=O)[C@H](CC(C)C)NC(=O)[C@H](Cc1ccc(O)cc1)NC(=O)[C@H](CCCCN)NC(=O)[C@H](CO)NC(=O)[C@H](Cc1ccc(O)cc1)NC(=O)[C@H](CC(=O)O)NC(=O)[C@H](CO)NC(=O)[C@@H](NC(=O)[C@H](Cc1ccccc1)NC(=O)[C@@H](NC(=O)CNC(=O)[C@H](CCC(N)=O)NC(=O)[C@H](CO)NC(=O)[C@@H](N)Cc1c[nH]c2ccccc12)[C@@H](C)O)[C@@H](C)O)C(=O)N[C@@H](CCCCN)C(=O)N[C@@H](CCCNC(=N)N)C(=O)N[C@@H](C)C(=O)N[C@@H](CCC(N)=O)C(=O)N[C@@H](CCC(=O)O)C(=O)N[C@@H](Cc1ccccc1)C(=O)N[C@H](C(=O)NC(C)(C)C(=O)N[C@@H](Cc1c[nH]c2ccccc12)C(=O)N[C@@H](CC(C)C)C(=O)N[C@@H](CCC(=O)O)C(=O)N[C@@H](CC(=O)O)C(=O)N[C@@H](CCC(=O)O)C(=O)N1CCC[C@H]1C(=O)N[C@@H](CO)C(=O)N[C@@H](CO)C(=O)NCC(=O)N[C@@H](C)C(=O)N1CCC[C@H]1C(=O)N1CCC[C@H]1C(=O)N1CCC[C@H]1C(=O)N[C@@H](CO)C(=O)O)C(C)C)C(=O)O [Compound B19] (H-WSQGTFTSDYSKYLDK([γGlu-Palmitoyl])KRAQEFV[Aib]WLEDEPSSGAPPPS-OH)	0.0251	501
